Data as given in PMC12731105, “Design and Synthesis of New Quinoxaline Analogs to Regenerate Sensory Auditory Hair Cells” (Cells, 2025).

Legend:
plasma protein = experiment: Plasma protein binding (rapid equilibrium dialysis); assay type: in vitro ADME, mice
mouse auditory function = experiment: Auditory brainstem response (ABR); assay type: in vivo, mice (Mus musculus); settings: for ABR vs control, 24 h treatment / ABR hearing vs control: C57BL/6J mice; for ABR vs control, 24 h treatment: 24 h post-treatment; for ABR hearing vs control: greater benefits at higher frequencies and at 48 and 72 h, Two-Way ANOVA, p < 0.01; for Frequency at which modest improvement in hearing threshold begins: audiometric threshold shift (ABR/DPOAE) vs vehicle-only controls
Experimental: C57BL/6J male and female mice between postnatal day 24 and 30 P-24-30) were randomized into control and experimental groups (9 mice per group per compound), with each experimental group receiving a single intraperitoneal (IP) injection of Qx-294 or Qx-301 at a dose of 300 mg/kg body weight, dissolved in dimethyl sulfoxide (DMSO). Controls consisted of treatment with DMSO alone (vehicle). A total of 90 adult wild-type C57/BL6 mice were used in this study. Based on the analysis, animals were examined at various times following treatment as described below.
Mice from all groups underwent auditory brainstem response (ABR) and distortion product otoacoustic emissions (DPOAEs) tests before the initiation of treatment with either compounds or vehicle, and at 24, 48, and 72 h post-treatment, as described below. After audiometric testing, pre-treatment mice were placed in a warm and clean cage and monitored until they were awake and able to remain upright in a sternal position. Alternatively, post-treatment mice had their cochleae processed for histological examination.
Mice were anesthetized with a ketamine (18 mg/mL) and xylazine (2 mg/mL) solution (5–9 μL per gram body weight injected intraperitoneally). Core body temperature was maintained at 37.0 ± 0.1 C using a homeothermic heating pad system (FHC, Inc., Bowdoin, ME, USA). Tone burst stimuli were generated and controlled using Tucker Davis Technologies (TDT, Gainesville, FL, USA) System III (RX6, PA5 components). Tone bursts at 8, 16, 32, and 41.2 kHz had 1.0 ms rise-fall times with 1.0 ms plateau (3 ms total duration) and alternating stimulus polarity. Stimuli for ABR testing were calibrated using a Bruel & Kjaar type 4138 ¼” microphone and Nexus type 2691 conditioning amplifier. Stimuli were calibrated in dB peSPL and presented via high-frequency transducers (TDT SA1 driver, MF1 speakers) coupled at the ear via PE tubing. Auditory stimuli were presented at a rate of 17 stimuli per second.

Plasma protein binding (plasma protein)	SMILES	ABR vs control, 24 h treatment (mouse auditory function)	ABR hearing vs control (mouse auditory function)	Frequency at which modest improvement in hearing threshold begins (mouse auditory function) [kHz]
highly protein-bound	c1ccc2nc(N3CCOCC3)cnc2c1 [Qx-294, 2-(morpholine)-quinoxaline]	no statistically significant differences	improved hearing for all test frequencies	≥ 16
	c1ccc2nc(N3CCCC3)cnc2c1 [Qx-301, 2-(pyrrolidine)-quinoxaline]	no statistically significant differences	improved hearing for all test frequencies	≥ 22.6
